Measurements from ChEMBL document CHEMBL5331124, “Degradation of Hexokinase 2 Blocks Glycolysis and Induces GSDME-Dependent Pyroptosis to Amplify Immunogenic Cell Death for Breast Cancer Therapy” (J Med Chem, 2023).
Activity calls are given as the source filed them. The rule behind the calls is not given here.

What was measured:
4T1 [1] = assay: Induction of pyroptosis in mouse 4T1 cells assessed as increase in full length GSDME level at 20 uM incubated for 36 hrs; format: functional, cell-based
[2] = target: T1, Hexokinase-2 (Homo sapiens) (UniProt P52789); assay: Induction of HK2 degradation in human MDA-MB-231 cells at 20 uM measured for 36 hrs by Western blot analysis; format: cell-based
T1 sequence (whole entry): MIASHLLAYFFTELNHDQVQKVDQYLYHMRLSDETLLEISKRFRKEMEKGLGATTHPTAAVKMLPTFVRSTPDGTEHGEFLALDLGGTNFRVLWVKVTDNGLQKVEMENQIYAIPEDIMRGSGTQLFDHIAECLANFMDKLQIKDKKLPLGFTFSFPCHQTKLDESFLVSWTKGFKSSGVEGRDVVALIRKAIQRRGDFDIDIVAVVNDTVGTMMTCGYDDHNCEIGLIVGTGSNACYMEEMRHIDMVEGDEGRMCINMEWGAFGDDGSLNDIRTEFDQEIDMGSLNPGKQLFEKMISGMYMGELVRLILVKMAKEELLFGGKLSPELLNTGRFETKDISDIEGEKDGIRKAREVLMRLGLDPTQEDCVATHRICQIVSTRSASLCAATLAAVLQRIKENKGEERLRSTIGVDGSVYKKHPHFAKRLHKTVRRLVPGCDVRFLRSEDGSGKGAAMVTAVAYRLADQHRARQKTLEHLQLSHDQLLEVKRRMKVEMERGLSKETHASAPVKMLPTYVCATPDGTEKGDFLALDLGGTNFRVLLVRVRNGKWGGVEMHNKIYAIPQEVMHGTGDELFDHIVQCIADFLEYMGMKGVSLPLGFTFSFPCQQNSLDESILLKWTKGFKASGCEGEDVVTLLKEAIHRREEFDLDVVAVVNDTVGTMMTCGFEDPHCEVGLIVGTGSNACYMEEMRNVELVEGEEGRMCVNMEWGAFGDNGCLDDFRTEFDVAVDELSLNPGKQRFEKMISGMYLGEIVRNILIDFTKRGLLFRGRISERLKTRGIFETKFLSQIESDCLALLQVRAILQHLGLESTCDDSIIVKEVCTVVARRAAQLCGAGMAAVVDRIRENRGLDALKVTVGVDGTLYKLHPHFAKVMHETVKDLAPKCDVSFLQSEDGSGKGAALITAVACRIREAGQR

MDA-MB-231 = assay: Antitumor activity against human MDA-MB-231 cells xenografted in BALB/c nude mouse assessed as increase in cleaved caspase-3 level at 50 mg/kg, ip measured after 28 days; format: functional, organism-based; conditions: time 28.0 day
[3] = target: T1, Hexokinase-2 (Homo sapiens); assay: (§1) Induction of HK2 degradation in human MDA-MB-231 cells measured for 36 hrs; format: cell-based
Hexokinase-2 = target: T2, Hexokinase-2 (Homo sapiens, UniProt P52789); assay: as §1; format: cell-based
T2 sequence (P52789 whole entry): T1 sequence (whole entry)

[4] = Toxicity in BALB/c mouse implanted with mouse 4T1 cells assessed as effect on red blood cells at 50 mg/kg, ip measured after 25 days by routine blood test; format: organism-based; conditions: in vivo, 600 h, time 25 day
[5] = Toxicity in BALB/c mouse implanted with mouse 4T1 cells assessed as pathological changes in liver at 50 mg/kg, ip measured after 25 days in presence of cisplatin by Hematoxylin -eosin staining based analysis; format: organism-based; conditions: in vivo, 600 h, time 25 day
4T1 [6] = assay: Antitumor immunity against mouse 4T1 cells implanted in BALB/c mouse model assessed as increase in ATP release in cell supernatant at 20 uM measured for 36 hrs by ELISA analysis; format: functional, cell-based
4T1 [7] = assay: Induction of pyroptosis in mouse 4T1 cells assessed as increase in N-terminal GSDME level at 20 uM incubated for 36 hrs; format: functional, cell-based
4T1 [8] = assay: Induction of pyroptosis in mouse 4T1 cells assessed as late apoptotic cells at 20 uM incubated for 36 hrs by annexin V-FITC staining based flow cytometry analysis (Rvb =13.6 %); format: functional
4T1 [9] = assay: Antitumor immunity activity against mouse 4T1 cells implanted in BALB/c mouse assessed as increase in proportion of cytotoxic CD8 positive T cells in tumor by flow cytometry analysis; format: functional, cell-based
4T1 [10] = assay: Antitumor activity against mouse 4T1 cells xenografted in BALB/c mouse assessed as reduction in tumor growth at 50 mg/kg, ip measured after 23 days; format: functional, organism-based; conditions: time 23.0 day
[11] = Toxicity in BALB/c mouse implanted with mouse 4T1 cells assessed as colon damage at 50 mg/kg, ip measured after 25 days in presence of cisplatin by H and E staining based analysis; format: organism-based; conditions: in vivo, 600 h, time 25 day
4T1 [12] = assay: Antitumor activity against mouse 4T1 cells implanted in BALB/c mouse model assessed as reduction tumor cell proliferation at 50 mg/kg, ip measured after 25 days by H and E staining based analysis; format: functional, organism-based; conditions: time 25.0 day
4T1 [13] = assay: Antitumor activity against mouse 4T1 cells implanted in BALB/c mouse assessed as reduction in tumor growth at 50 mg/kg, ip measured after 23 days in presence of cisplatin; format: functional, organism-based; conditions: time 23.0 day
[14] = target: T3, Hexokinase-2 (Mus musculus) (UniProt O08528); assay: Induction of HK2 degradation in mouse 4T1 cells upto 200 uM measured at 12 to 36 hrs; format: cell-based; conditions: time 12-36 hrs
T3 sequence (whole entry): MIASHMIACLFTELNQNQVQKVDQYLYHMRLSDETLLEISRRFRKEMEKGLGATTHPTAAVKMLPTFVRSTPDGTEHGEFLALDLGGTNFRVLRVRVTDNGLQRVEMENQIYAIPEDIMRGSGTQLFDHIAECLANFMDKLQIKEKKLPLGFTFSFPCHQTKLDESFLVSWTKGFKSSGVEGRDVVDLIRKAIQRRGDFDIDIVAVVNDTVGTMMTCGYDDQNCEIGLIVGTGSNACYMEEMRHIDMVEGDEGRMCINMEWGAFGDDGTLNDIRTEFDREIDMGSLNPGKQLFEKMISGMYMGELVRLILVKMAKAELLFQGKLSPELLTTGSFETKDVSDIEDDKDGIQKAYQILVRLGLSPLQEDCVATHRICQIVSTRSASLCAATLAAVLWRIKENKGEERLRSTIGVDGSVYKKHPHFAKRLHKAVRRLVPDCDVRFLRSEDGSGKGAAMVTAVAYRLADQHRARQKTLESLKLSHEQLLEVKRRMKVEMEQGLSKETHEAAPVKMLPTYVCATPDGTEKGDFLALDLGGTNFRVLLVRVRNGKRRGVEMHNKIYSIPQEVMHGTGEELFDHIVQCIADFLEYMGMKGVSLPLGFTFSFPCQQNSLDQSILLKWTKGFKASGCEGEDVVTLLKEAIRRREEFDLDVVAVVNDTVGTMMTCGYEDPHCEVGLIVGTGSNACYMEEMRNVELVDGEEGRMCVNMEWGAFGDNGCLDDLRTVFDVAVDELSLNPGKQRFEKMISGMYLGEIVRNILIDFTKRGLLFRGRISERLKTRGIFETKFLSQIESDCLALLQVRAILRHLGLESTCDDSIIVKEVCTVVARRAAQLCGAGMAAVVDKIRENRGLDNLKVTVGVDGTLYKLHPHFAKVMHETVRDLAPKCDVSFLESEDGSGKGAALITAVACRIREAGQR

[15] = Toxicity in BALB/c nude mouse xenografted with human MDA-MB-231 cells assessed as effect on hematocrit level at 50 mg/kg, ip measured after 30 days by routine blood test; format: organism-based; conditions: in vivo, 720 h, time 30 day

Question: Which Activity (4T1 [1]) does the source give for O=C1CCC(N2C(=O)c3cccc(NCCCCNC(=O)c4nn(Cc5ccc(Cl)cc5Cl)c5ccccc45)c3C2=O)C(=O)N1 (configuration not stated) here?
Answer: Active

Question: What about the Activity [2] of the same compound?
Answer: Active

Question: What about the Activity (MDA-MB-231) of the same compound?
Answer: Active

Question: And the Activity [3]?
Answer: Dose-Dependent Effect

Question: And the DC50 (Hexokinase-2)?
Answer: 790 nM

Question: And the Activity [4]?
Answer: Non-Toxic

Question: What about the Activity [5] of the same compound?
Answer: Non-Toxic

Question: And the Activity (4T1 [6])?
Answer: Active

Question: And the Activity (4T1 [7])?
Answer: Active

Question: And the Activity (4T1 [8])?
Answer: 43%

Question: What about the Activity (4T1 [9]) of the same compound?
Answer: Active

Question: And the Activity (4T1 [10])?
Answer: Active

Question: What about the Activity [11] of the same compound?
Answer: Non-Toxic

Question: What about the Activity (4T1 [12]) of the same compound?
Answer: Active

Question: And the Activity (4T1 [13])?
Answer: Active

Question: And the Activity [14]?
Answer: Active

Question: What about the Activity [15] of the same compound?
Answer: Non-Toxic
